Data from patent US20260048138A1, “NOVEL PI3K AND/OR PIKK INHIBITORS, ANTIBODY-DRUG CONJUGATES COMPRISING THE SAME AND USES THEREOF” (HUTCHMED LIMITED, priority 2024, published 2026).
Like-named read-outs stand apart in the source and are kept apart here. Each block holds one molecule with its values, some of them ahead of it.

Columns and labels:
[1] = target: T1, Human PIK3CA/PIK3R1 (p110α/p85α) recombinant protein (Homo sapiens, UniProt P42336); experiment: PIK3CA/PIK3R1 (p110α/p85α) kinase activity, Transcreener ADP2 FP; type: biochemical; conditions: 10 μM ATP, 30 μM PIP2:PS; read-out: PIK3CA/PIK3R1 (p110α/p85α) (Enzyme, IC50)
T1 construct: His tag; purchased Invitrogen PV4788
T1 sequence (P42336 whole entry): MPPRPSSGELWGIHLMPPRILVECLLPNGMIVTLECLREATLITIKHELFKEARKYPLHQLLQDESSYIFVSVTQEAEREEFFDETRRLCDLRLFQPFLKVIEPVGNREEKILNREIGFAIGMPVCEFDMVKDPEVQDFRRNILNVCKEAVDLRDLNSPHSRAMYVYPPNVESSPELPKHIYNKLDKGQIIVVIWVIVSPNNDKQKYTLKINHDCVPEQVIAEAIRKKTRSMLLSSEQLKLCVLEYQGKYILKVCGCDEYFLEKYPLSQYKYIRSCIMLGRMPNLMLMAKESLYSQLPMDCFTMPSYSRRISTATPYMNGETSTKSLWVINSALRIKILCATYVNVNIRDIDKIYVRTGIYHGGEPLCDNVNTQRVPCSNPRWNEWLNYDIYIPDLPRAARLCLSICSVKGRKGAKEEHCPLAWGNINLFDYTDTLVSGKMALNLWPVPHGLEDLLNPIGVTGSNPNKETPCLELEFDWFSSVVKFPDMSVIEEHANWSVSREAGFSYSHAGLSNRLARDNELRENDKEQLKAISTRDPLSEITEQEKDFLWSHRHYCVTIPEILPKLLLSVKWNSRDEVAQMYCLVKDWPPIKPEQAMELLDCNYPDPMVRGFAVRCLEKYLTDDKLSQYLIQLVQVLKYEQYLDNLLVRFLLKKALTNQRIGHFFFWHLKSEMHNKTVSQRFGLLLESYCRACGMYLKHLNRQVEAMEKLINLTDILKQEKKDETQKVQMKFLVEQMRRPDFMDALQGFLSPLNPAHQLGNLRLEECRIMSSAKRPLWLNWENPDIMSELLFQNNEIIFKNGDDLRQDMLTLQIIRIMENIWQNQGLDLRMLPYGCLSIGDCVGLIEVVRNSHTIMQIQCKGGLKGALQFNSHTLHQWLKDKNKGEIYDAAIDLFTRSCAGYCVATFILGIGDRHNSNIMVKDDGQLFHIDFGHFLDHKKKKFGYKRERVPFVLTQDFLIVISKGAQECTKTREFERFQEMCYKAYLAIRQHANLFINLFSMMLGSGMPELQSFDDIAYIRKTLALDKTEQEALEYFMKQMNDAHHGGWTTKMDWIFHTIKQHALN
T1 sequence (P27986 whole entry partner): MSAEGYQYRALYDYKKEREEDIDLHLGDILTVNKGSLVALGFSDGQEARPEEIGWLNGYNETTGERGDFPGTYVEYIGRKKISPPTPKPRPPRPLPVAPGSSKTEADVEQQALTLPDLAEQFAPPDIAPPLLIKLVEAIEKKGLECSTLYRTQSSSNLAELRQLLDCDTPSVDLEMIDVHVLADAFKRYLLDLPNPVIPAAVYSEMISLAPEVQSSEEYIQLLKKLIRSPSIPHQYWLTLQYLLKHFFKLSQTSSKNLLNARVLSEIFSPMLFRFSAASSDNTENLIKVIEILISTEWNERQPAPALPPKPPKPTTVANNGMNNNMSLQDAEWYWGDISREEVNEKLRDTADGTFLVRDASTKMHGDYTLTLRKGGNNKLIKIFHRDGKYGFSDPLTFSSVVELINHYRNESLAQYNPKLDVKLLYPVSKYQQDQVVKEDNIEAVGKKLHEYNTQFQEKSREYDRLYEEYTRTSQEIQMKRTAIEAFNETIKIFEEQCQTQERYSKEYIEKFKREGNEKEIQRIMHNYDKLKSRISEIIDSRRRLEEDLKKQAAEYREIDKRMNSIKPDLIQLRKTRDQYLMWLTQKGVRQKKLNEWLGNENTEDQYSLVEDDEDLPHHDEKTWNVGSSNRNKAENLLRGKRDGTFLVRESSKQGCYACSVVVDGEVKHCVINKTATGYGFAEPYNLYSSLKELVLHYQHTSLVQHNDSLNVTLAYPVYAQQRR
Description: The complex formed by the binding of the ADP Alexa633 Tracer to the ADP2 antibody therein could produce fluorescence polarization. […] Assay is carried out according to the instruction of the kit. […] After that, 10 μl PIK3CA/PIK3R1 (p110α/p85α) enzyme solution was added to each well; then, 10 μl of a mixed solution of ATP and PIP2:PS lipid kinase substrate was added to each well, and the mixture was centrifuged at 1000 rpm for 60 seconds; Then, the 96-well plate was placed in a constant temperature incubator protected from light and incubated at room temperature for 1 hour. […] After the enzymatic reaction was completed, 25 μl of ADP detection mixture was added to the positive control group, 25 μl of ADP detection mixture without ADP^2 antibody was added to the negative control group, and 25 μl of ADP detection mixture without tracer-label ADP and ADP^2 antibody was added to the blank control group. Then centrifugation was performed at 1000 rpm for 60 seconds. The 96-well plate was placed in a constant temperature incubator protected from light, and incubated at room temperature for 1.5 hours. […] [formula] The inhibition rate was calculated using the formula as below: [formula]

MDA-MB-468 = experiment: Inhibition of cell proliferation by payloads in vitro (CCK-8); type: cell-based; conditions: Homo sapiens, MDA-MB-468, 144 h, read-out: IC50, nM MDA-MB-468
Description: (§1) The cells were added to a 96-well plate at 1.0×10^3 cells/well and 100 μL/well and incubated in a cell culture incubator at 37° C. and 5% CO2. The test compounds were diluted with a DMEM medium containing 2% DMSO (Sigma-Aldrich, Cat. No. 34869) in a 4-fold gradient to the corresponding concentrations. […] The final concentration of DMSO was 0.2%. The cells were incubated in a cell culture incubator at 37° C. and 5% CO2 for 6 days.
(§2) After 6 days of culture, 10 μL/well of Cell Counting Kit-8 reagent (CCK-8, Dojindo, Cat. No. CK04) was added to the wells and mixed well with shaking. The cells were incubated in a cell culture incubator at 37° C. and 5% CO2 for 0.50-4.0 hours.
(§3) The OD450 optical density value was read on an EnVision™ multi-function microplate reader (PerkinElmer), and the inhibition rates (%) of the compounds were calculated. Then, the half-maximal inhibitory concentration (IC50) values were obtained using the XLfit5 software (ID Business Solutions Limited). All samples were tested in duplicate wells.
(§4) [formula] • wherein • OD450test compound represents the optical density value in the wells of the compounds to be tested; • OD450cell represents the optical density value in the wells of cell controls; • OD450background represents the optical density value in the wells of cell-free controls.

MDA-MB-453 = experiment: as above; type: cell-based; conditions: Homo sapiens, MDA-MB-453, 144 h, read-out: IC50, nM MDA-MB-453
Description: as §1, §2, §3, §4

[2] = target: T2, Human FRAP1 (mTOR) recombinant protein (Homo sapiens, UniProt P42345); experiment: FRAP1 (mTOR) kinase activity, LanthaScreen TR-FRET; type: biochemical; conditions: 10 μM ATP, 0.4 μM GFP-4EBP1; read-out: FRAP1 (mTOR) (Enzyme, IC50)
T2 construct: GST; purchased Invitrogen PV4753
T2 sequence (P42345 1360-2549 limits assumed): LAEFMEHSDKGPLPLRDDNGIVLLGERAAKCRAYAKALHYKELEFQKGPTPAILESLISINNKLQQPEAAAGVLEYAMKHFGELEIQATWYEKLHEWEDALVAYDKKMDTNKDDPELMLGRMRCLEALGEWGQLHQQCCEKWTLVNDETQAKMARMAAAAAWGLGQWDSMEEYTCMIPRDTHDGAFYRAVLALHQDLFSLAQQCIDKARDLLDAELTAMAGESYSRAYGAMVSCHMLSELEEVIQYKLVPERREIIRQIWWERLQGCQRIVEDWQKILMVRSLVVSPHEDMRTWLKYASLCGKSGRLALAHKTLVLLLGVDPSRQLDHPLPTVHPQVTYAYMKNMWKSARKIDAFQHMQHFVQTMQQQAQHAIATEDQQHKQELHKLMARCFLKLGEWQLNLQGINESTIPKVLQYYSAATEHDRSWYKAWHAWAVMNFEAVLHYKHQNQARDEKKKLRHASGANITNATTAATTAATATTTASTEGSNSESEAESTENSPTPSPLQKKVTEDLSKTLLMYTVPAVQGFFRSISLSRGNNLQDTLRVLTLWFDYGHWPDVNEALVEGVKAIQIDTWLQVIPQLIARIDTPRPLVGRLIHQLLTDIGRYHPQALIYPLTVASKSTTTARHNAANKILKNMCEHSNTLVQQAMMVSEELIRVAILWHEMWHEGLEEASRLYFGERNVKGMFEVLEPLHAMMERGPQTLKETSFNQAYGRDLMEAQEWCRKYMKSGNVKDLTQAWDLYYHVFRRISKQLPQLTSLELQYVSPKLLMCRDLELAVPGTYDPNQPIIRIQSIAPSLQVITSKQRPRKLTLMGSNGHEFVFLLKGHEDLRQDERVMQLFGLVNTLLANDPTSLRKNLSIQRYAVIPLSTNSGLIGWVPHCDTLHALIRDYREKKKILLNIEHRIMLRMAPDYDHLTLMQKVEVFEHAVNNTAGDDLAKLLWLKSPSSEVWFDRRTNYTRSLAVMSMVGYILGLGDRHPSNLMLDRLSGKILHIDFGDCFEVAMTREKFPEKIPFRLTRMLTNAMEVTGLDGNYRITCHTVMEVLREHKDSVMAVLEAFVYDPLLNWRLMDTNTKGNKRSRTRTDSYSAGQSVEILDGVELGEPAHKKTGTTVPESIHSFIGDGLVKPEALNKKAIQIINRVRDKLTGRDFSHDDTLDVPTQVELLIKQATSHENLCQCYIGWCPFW
Description: Determination of FRAP1 (mTOR) Kinase Activity • Human FRAP1 (mTOR) recombinant protein (GST tag): Invitrogen, Cat. No. PV4753; • GFP-4E-BP1: Thermo Scientific, Cat. No. PV4759; • LanthaScreenTM Tb-p4E-BP1 ([…]) antibody: Thermo Scientific, Cat. No. PV4755; • TR-FRET dilution buffer: Thermo Scientific, Cat. No. PV3574; • ATP solution (10 mM): Thermo Scientific, Cat. No. PV3227; • HEPES (1 M): Gibco, Cat. No. 15630-106; • EDTA (0.5 M), pH 8.0, RNase-free: Invitrogen, Cat. No. A[…]; • Manganese chloride solution: Sigma-Aldrich, Cat. No. M1787; • EGTA: Sigma-Aldrich, Cat. No. E4378; • TWEEN®20: Sigma-Aldrich, Cat. No. P2287; • DTT: Sigma-Aldrich, Cat. No. DTT-RO; • 384-well plate: Corning, Cat. No. 3676; • 384-well plate: Corning, Cat. No. 4514; • Envision multi-mode plate reader: PerkinElmer; 4EBP1 is the substrate of mTOR, and when mTOR is activated, it will phosphorylate […] of the 4EBP1 protein. LanthaScreenTM kinase assay is used to detect the amount of phosphorylated substrate GFP-4E-BP1 produced in kinase activity experiments, thereby judging the mTOR kinase activity, and through the strength of the kinase activity, distinguishing the inhibitory effects of different compounds on the activity of FRAP1 (mTOR) kinase. […] Then, the 384-well plate was placed in a constant temperature incubator protected from light and incubated at room temperature for 1 hour. […] The 384-well plate was taken out and the plate was read using an Envision multi-mode plate reader (the excitation light wavelength was 320 nm and the emission light wavelengths were 495 nm and 520 nm). The inhibition rate was calculated using the formula as below: [formula]

ATM(h) = ATM(h) (Homo sapiens, UniProt Q13315); experiment: ATM(h) kinase activity, HTRF (Eurofins Cerep); type: biochemical; conditions: read-out: ATM(h) (enzyme, IC50)
Description: (§5) The […], ATM(h), ATR/ATRIP(h), and DNA-PK (h) were detected by HTRFR.
(§6) The calculation formula was as follows: […]
(§7) For IC50 determination, the data were analyzed using XLFit version 5.3 (ID Business Solutions).

DNA-PK(h) = target: T3, DNA-PK(h) (Homo sapiens, UniProt P78527); experiment: DNA-PK(h) kinase activity, HTRF (Eurofins Cerep); type: biochemical; conditions: read-out: DNA-PK(h) (enzyme, IC50)
T3 construct: purchased Eurofins Cerep 14-950
Description: as §5, §6, §7

ATR/ATRIP(h) = target: T4, ATR/ATRIP(h) (Homo sapiens, UniProt Q13535); experiment: ATR/ATRIP(h) kinase activity, HTRF (Eurofins Cerep); type: biochemical; conditions: read-out: ATR/ATRIP(h) (enzyme, IC50)
T4 construct: purchased Eurofins Cerep 14-953
Description: as §5, §6, §7

CEACAM5/6 = experiment: flow cytometry on H2122 cells (CEACAM5/6+)
[3] = payloads, proliferation, 6 days, CCK-8

Molecule: COc1ncc(-c2ccc3ncc4c(c3c2)n([C@@H]2C[C@@H]2F)c(=O)n4C)cc1NS(=O)(=O)N1CCNCC1 [Compound 27]
- IC50 (ATM(h)): 0.7 nM
- IC50 (DNA-PK(h)): 0.2 nM
- IC50 (ATR/ATRIP(h)): 17 nM
- IC50 (MDA-MB-468; [3]): 0.29 nM
- IC50 (MDA-MB-453; [3]): 0.24 nM
- IC50 [2]: 6.4 nM

Molecule: COc1ncc(-c2ccc3ncc4c(c3c2)n(CC(F)(F)F)c(=O)n4C)cc1NS(=O)(=O)N1CCNCC1 [Compound 32]
- IC50 (ATM(h)): 0.6 nM
- IC50 [1]: 2.8 nM
- IC50 (DNA-PK(h)): 0.3 nM
- IC50 (ATR/ATRIP(h)): 17 nM
- IC50 (MDA-MB-468; [3]): 0.24 nM
- IC50 (MDA-MB-453; [3]): 0.22 nM

Molecule: COc1ncc(-c2ccc3ncc4ncc(C5CC5)n4c3c2)cc1NS(=O)(=O)N1CCNCC1 [Compound 23]
- IC50 [1]: 0.7 nM
- IC50 (MDA-MB-468; [3]): 1.4 nM
- IC50 (MDA-MB-453; [3]): 0.55 nM
- IC50 [2]: 3.4 nM

Molecule: COc1ncc(-c2ccc3ncc4c(C)nc(C5CC5)n4c3c2)cc1NS(=O)(=O)N1CCNCC1 [Compound 31]
- IC50 (ATM(h)): 0.4 nM
- IC50 (DNA-PK(h)): 0.2 nM
- IC50 (ATR/ATRIP(h)): 15 nM
- IC50 (MDA-MB-453; [3]): 0.24 nM

Molecule: COCC1(n2c(=O)n(C)c3cnc4ccc(-c5cnc(OC)c(NS(=O)(=O)N6CCNCC6)c5)cc4c32)CC1 [Compound 30]
- IC50 (ATM(h)): 1 nM
- IC50 [1]: 2.3 nM
- IC50 (DNA-PK(h)): 0.6 nM
- IC50 (ATR/ATRIP(h)): 36 nM
- IC50 (MDA-MB-468; [3]): 0.64 nM
- IC50 (MDA-MB-453; [3]): 0.41 nM
- IC50 [2]: 4.6 nM

Molecule: COc1ncc(-c2ccc3ncc4c(c3c2)n(C2CC2)c(=O)n4C)cc1NS(=O)(=O)N1CCNCC1 [Compound 2]
- IC50 (ATM(h)): 1 nM
- IC50 [1]: 0.7 nM
- IC50 (DNA-PK(h)): 0.4 nM
- IC50 (ATR/ATRIP(h)): 13 nM
- IC50 (MDA-MB-468): 0.41 nM
- IC50 (MDA-MB-453): 0.31 nM
- IC50 [2]: 6.3 nM

Molecule: COc1ncc(-c2ccc3ncc4cnc(C5CC5)n4c3c2)cc1NS(=O)(=O)N1CCNCC1 [Compound 1]
- IC50 (ATM(h)): 0.5 nM
- IC50 [1]: 0.5 nM
- IC50 (DNA-PK(h)): 0.1 nM
- IC50 (ATR/ATRIP(h)): 9 nM
- IC50 (MDA-MB-468; [3]): 0.39 nM
- IC50 (MDA-MB-453; [3]): 0.23 nM
- IC50 [2]: 3.6 nM

Molecule: COc1ncc(-c2ccc3ncc4c(c3c2)n(C2CC2)c(=O)n4C)cc1NS(=O)(=O)C1CCNCC1 [Compound 14]
- IC50 [1]: 0.6 nM
- IC50 (MDA-MB-468; [3]): 0.41 nM
- IC50 (MDA-MB-453; [3]): 0.39 nM
- IC50 [2]: 11.2 nM

B1: mAb1 (antibody, human IgG1, kappa, V domains shown)
VH: QVQLVQSGAEVKKPGASVKVSCKASGYTFTDYAMHWVRQAPGQRLEWMGLISTYSGDTKYNQNFQGRVTMTVDKSASTAYMELSSLRSEDTAVYYCARGDYSGSRYWFAYWGQGTLVTVSS
VL: DIQMTQSPSSLSASVGDRVTITCQASENIYGALNWYQRKPGKSPKLLIYGASNLATGMPSRFSGSGSGTDYTFTISSLQPEDIATYYCQQVLSSPYTFGGGTKLEIKR
- EC50 (CEACAM5/6): 7.94 nM

Now from value to molecule:

- IC50 [1]: 0.5 nM
- IC50 (MDA-MB-468; [3]): 0.22 nM
- IC50 (MDA-MB-453; [3]): 0.3 nM
- IC50 [2]: 2.7 nM
Molecule: COc1ncc(-c2ccc3ncc4c(c3c2)n([C@H]2C[C@H](O)C2)c(=O)n4C)cc1NS(=O)(=O)N1CCNCC1 [Compound 7]

- IC50 [1]: 1.4 nM
- IC50 (MDA-MB-468; [3]): 0.055 nM
- IC50 (MDA-MB-453; [3]): 0.12 nM
- IC50 [2]: 8.6 nM
Molecule: COc1ncc(-c2ccc3ncc4c(c3c2)n(C2CCCC2)c(=O)n4C)cc1NS(=O)(=O)N1CCNCC1 [Compound 19]

- IC50 (MDA-MB-468; [3]): 0.2 nM
- IC50 (MDA-MB-453; [3]): 0.34 nM
- IC50 [2]: 10.8 nM
Molecule: COc1ncc(-c2ccc3ncc4c(c3c2)n(C2CC(F)(F)C2)c(=O)n4C)cc1NS(=O)(=O)N1CCNCC1 [Compound 25]

- IC50 (ATM(h)): 0.6 nM
- IC50 [1]: 0.6 nM
- IC50 (DNA-PK(h)): 0.3 nM
- IC50 (ATR/ATRIP(h)): 13 nM
- IC50 (MDA-MB-468; [3]): 0.24 nM
- IC50 [2]: 2.8 nM
Molecule: COc1ncc(-c2ccc3ncc4c(c3n2)n(C2CC2)c(=O)n4C)cc1NS(=O)(=O)N1CCNCC1 [Compound 28]

- IC50 [1]: 1.8 nM
- IC50 (MDA-MB-468; [3]): 0.2 nM
- IC50 (MDA-MB-453; [3]): 0.24 nM
Molecule: COc1ncc(-c2ccc3ncc4cnc(C5CC(F)(F)C5)n4c3c2)cc1NS(=O)(=O)N1CCNCC1 [Compound 24]

- IC50 [1]: 2.1 nM
- IC50 (MDA-MB-468; [3]): 0.091 nM
- IC50 [2]: 6.2 nM
Molecule: COc1ncc(-c2ccc3ncc4cnc(C5CCC5)n4c3c2)cc1NS(=O)(=O)N1CCNCC1 [Compound 18]

- IC50 (ATM(h)): 0.7 nM
- IC50 [1]: 1.4 nM
- IC50 (DNA-PK(h)): 0.3 nM
- IC50 (ATR/ATRIP(h)): 20 nM
- IC50 (MDA-MB-468; [3]): 0.078 nM
- IC50 (MDA-MB-453; [3]): 0.056 nM
- IC50 [2]: 1.4 nM
Molecule: COc1ncc(-c2ccc3ncc4c(c3c2)n(C(C)C)c(=O)n4C)cc1NS(=O)(=O)N1CCNCC1 [Compound 29]

- IC50 [1]: 1.6 nM
- IC50 (MDA-MB-468; [3]): 0.09 nM
- IC50 (MDA-MB-453; [3]): 0.064 nM
- IC50 [2]: 7.5 nM
Molecule: COc1ncc(-c2ccc3ncc4c(c3c2)n(C2CCC2)c(=O)n4C)cc1NS(=O)(=O)N1CCNCC1 [Compound 5]
